Measured values reported in US11236086B2, “Substituted pyrrolopyridines as inhibitors of activin receptor-like kinase” (BLUEPRINT MEDICINES CORPORATION, priority 2017, dated 2022).

Legend:
[1] = biological target: T1, ALK2R206H (mutant ALK2, N-terminally tagged with GST) (Homo sapiens, UniProt Q04771, R206H); assay: ALK binding assay (LANTHASCREEN TR-FRET competitive binding, displacement of Kinase Tracer 178); details: read-out: Binding Assay (IC50 class)
T1 construct: purchased Carna Bioscience or ThermoFisher 09-148 or PV6232
T1 sequence (Q04771 21-509 R206H): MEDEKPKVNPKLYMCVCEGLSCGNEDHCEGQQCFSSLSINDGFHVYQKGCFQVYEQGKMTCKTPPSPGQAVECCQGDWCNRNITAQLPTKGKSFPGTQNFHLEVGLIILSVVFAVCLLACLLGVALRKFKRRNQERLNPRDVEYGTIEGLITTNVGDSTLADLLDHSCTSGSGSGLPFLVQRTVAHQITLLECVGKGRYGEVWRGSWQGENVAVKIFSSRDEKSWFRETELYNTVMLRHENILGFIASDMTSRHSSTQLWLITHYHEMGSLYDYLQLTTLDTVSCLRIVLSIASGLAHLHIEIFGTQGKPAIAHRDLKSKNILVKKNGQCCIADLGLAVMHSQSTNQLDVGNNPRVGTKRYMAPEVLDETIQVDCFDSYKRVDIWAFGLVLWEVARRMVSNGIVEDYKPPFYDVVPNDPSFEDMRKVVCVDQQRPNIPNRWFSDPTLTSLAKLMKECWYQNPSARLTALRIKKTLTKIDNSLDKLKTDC
Outline: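 Competitive displacement of Kinase Tracer 178 (50 nM) from N-terminally GST-tagged mutant ALK2 R206H (2-5 nM) by compound, detected by TR-FRET with Eu-anti-GST antibody (4-10 nM). 30 min room temperature incubation, 1% DMSO final; normalized signal fitted to 4-parameter log dose response for IC50.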

human ALK2 R206H = biological target: T2, human ALK2 R206H (Homo sapiens, UniProt Q04771, R206H); assay: Cell-based ALK2-R206H cell activity assay (Smad1-Ser463/Ser465 phosphorylation by AlphaLISA in HEK293-ALK2-R206H cells); details: phospho-Smad1 AlphaLISA, read-out: Cell Line (Cell Assay, IC50 class)
T2 construct: expressed in transfected cells; host or cells: HEK293 (ATCC CRL1573), lentivirus transduction, blasticidin selection
T2 sequence (Q04771 21-509 R206H): T1 sequence (Q04771 21-509 R206H)
Experimental: Example 11. Cell-Based ALK2-R206H Cell Activity Assay
A HEK293 (ATCC, Cat No. CRL1573) based stable cell line expressing human ALK2 R206H cDNA (synthesized by GeneScript, Piscataway, N.J.) and a FLAG tag at the C-terminus was generated by lentivirus transduction and subsequent blasticidin (Life Technologies, Cat No. A1113902) selection at 10 μg/ml for >2 wks. This cell line was named HEK293-ALK2-R206H.
B. Measurement of Smad1-Ser463/Ser465 Phosphorylation by AlphaLISA
HEK293-ALK2-R206H cells were grown, harvested, and then resuspended in serum-free, phenol red-free DMEM high glucose media (Life Technologies, Cat No. 31053). The media also contained 50 units/ml penicillin and 50 μg/ml streptomycin (Life Technologies, Cat. No. 15070-063). HEK293-ALK2-R206H cells were then plated in white opaque 384-wells microplates (2×10^4/well) (OptiPlate-384, PerkinElmer, Waltham, Mass., Cat No. 6007299) overnight (>16h) at 37° C. 5% CO2 for use in the assay.
Test compounds were first diluted to 4 mM or 0.4 mM and then serially diluted 3-fold into 10 different concentrations using DMSO. Each concentration of compound was further diluted 40-fold with phenol red-free DMEM (Life Technologies, Cat No. 31053). 2 μl of the diluted compounds were then dispensed into the HEK293-ALK2-R206H cell-containing wells of the microplates in duplicates. In this way, each compound was tested in 10 doses (3-fold serial dilution with the top concentration being 10 μM or 1 μM). Liquid handling was achieved using a Bravo Automated Liquid Handling Platform (Agilent Technologies). DMSO without compound was used as a negative control. The positive control was 1 μM LDN193189, a known bone morphogenetic protein (BMP inhibitor).
After 2-3 hours of incubation with test compound or control, the cells were lysed and signal was developed using ALPHASCREEN® SUREFIRE® SMAD1 (p-Ser463/465) cellular kinase assay kit (PerkinElmer, Cat No. TGRSM1S10K) following the manufacturer's recommended protocol. The microplates were read using Perkin Elmer ENVISION® plate reader (emission […]). The signal reflected the level of phospho-Ser/463/465-Smad1 in the lysate. The raw data were plotted using the DMSO negative and LDN193189 positive controls as the 0% and 100% inhibition, respectively. The 10-point dose response curve was used to calculate the IC50 values.
The results of this assay are shown in Table 3 in the column labeled “Cell Assay” wherein “A” represents an IC50 of less than or equal to 100 nM; “B” an IC50 of greater than 100 nM and less than or equal to 500 nM; “C” an IC50 of greater than 500 nM. Blank values in the table indicate that the particular compound was not tested in this assay.

Row | Structure (SMILES) | IC50 [1] | IC50 (human ALK2 R206H)
1 | CCOC(=O)N1CCN(c2ccnc3[nH]c(-c4ncc(C(C)C)s4)cc23)CC1 [Compound 177] | ≤ 10 nM | ≤ 100 nM
2 | CN(C)C(=O)COc1ccc(-c2cc3c(N4CCN(C(=O)C5CC5)CC4)ccnc3[nH]2)cc1 [Compound 388] | ≤ 10 nM | 100 to 500 nM
3 | Cc1nc(-c2cc3c(N4CCN(C(=O)OCC(F)F)CC4)ccnc3[nH]2)cs1 [Compound 212] | ≤ 10 nM | ≤ 100 nM
4 | Cc1nc(-c2cc3c(N4CCN(C(=O)O[C@@H](C)CF)CC4)ccnc3[nH]2)cs1 [Compound 189] | ≤ 10 nM | ≤ 100 nM
5 | Cn1cc(-c2[nH]c3nccc(N4CCN(C(=O)[C@H]5CC[C@H](C#N)CC5)CC4)c3c2C#N)cn1 [Compound 374] | ≤ 10 nM | ≤ 100 nM
6 | CCn1cc(-c2cc3c(N4CCN(C(=O)C5CC5)CC4)ccnc3[nH]2)cn1 [Compound 23] | ≤ 10 nM | 100 to 500 nM
7 | CCOC(=O)N1CCN(c2ccnc3[nH]c(-c4ccc(C#N)cn4)cc23)CC1 [Compound 56] | ≤ 10 nM | 100 to 500 nM
8 | Cn1cc(-c2cc3c(N4CCN(C(=O)O[C@H]5COC[C@@H]5F)CC4)ccnc3[nH]2)cn1 [Compound 254] | ≤ 10 nM | 100 to 500 nM
9 | Cn1cc(-c2[nH]c3nccc(N4CCN(C(=O)OC5CS(=O)(=O)C5)CC4)c3c2C#N)cn1 [Compound 414] | ≤ 10 nM | ≤ 100 nM
10 | CCc1nc(-c2cc3c(N4CCN(C(=O)OC5COC5)CC4)ccnc3[nH]2)cs1 [Compound 248] | ≤ 10 nM | ≤ 100 nM
11 | Cn1cc(-c2[nH]c3nccc(N4CCN(C(=O)OC5COC5)CC4)c3c2Cl)cn1 [Compound 276] | ≤ 10 nM | ≤ 100 nM
12 | Cn1cc(-c2cc3c(N4CCN(C(=O)OC5COC5)CC4)ccnc3[nH]2)nc1Cl [Compound 275] | ≤ 10 nM | ≤ 100 nM
13 | CS(=O)(=O)N1CCc2nc(-c3cc4c(N5CCN(C(=O)OC6COC6)CC5)ccnc4[nH]3)sc2C1 [Compound 474] | ≤ 10 nM | ≤ 100 nM
14 | C[S+]([O-])c1ccc(-c2cc3c(N4CCN(C(=O)C5CC5)CC4)ccnc3[nH]2)cc1 (stereo not shown) [Compound 225] | ≤ 10 nM | 100 to 500 nM
15 | Cc1c(-c2cnn(C)c2)[nH]c2nccc(N3CCN(C(=O)O[C@H]4C[C@H](F)C4)CC3)c12 [Compound 245] | ≤ 10 nM | ≤ 100 nM
16 | Cc1nc(-c2cc3c(N4CCN(C(=O)OCC(F)F)CC4)ccnc3[nH]2)sc1C [Compound 291] | ≤ 10 nM | ≤ 100 nM
17 | CCN1CC[C@H](c2ccc(-c3cc4c(N5CCN(C(=O)C6CC6)CC5)ccnc4[nH]3)cc2)C(F)(F)C1 [Compound 459] | ≤ 10 nM | ≤ 100 nM
18 | Cc1nc(-c2[nH]c3nccc(N4CCN(C(=O)O[C@H]5C[C@H](F)C5)CC4)c3c2C#N)cs1 [Compound 365] | ≤ 10 nM | ≤ 100 nM
19 | C[C@H](F)COC(=O)N1CCN(c2ccnc3[nH]c(-c4cnn(C)c4)cc23)CC1 [Compound 116] | ≤ 10 nM | ≤ 100 nM

Row | Structure (SMILES) | IC50 [1] | IC50 (human ALK2 R206H)
20 | CC(C)n1cc(-c2cc3c(N4CCN(C(=O)[C@H]5CC[C@H](C#N)CC5)CC4)ccnc3[nH]2)cn1 [Compound 381] | ≤ 10 nM | ≤ 100 nM
21 | CCOC(=O)N1CCN(c2ccnc3[nH]c(-c4nc(C)cs4)cc23)CC1 [Compound 48] | ≤ 10 nM | 100 to 500 nM
22 | CC(C)N1CCC[C@@H](c2ccc(-c3cc4c(N5CCN(C(=O)OC6COC6)CC5)ccnc4[nH]3)cc2)C1 [Compound 466] | ≤ 10 nM | ≤ 100 nM
23 | Cc1nc(-c2[nH]c3nccc(N4CCN(C(=O)O[C@H]5C[C@@H](F)C5)CC4)c3c2C#N)cn1C [Compound 356] | ≤ 10 nM | ≤ 100 nM
24 | CCC(=O)N1CCN(c2ccnc3[nH]c(-c4cnn(C)c4)cc23)CC1 [Compound 2] | ≤ 10 nM | > 500 nM
25 | O=C(C1CC1)N1CCN(c2ccnc3[nH]c(-c4ccc(N5CCN6CCOCC6C5)cc4)cc23)CC1 (stereo not shown) [Compound 453] | ≤ 10 nM | ≤ 100 nM
26 | CCS(=O)(=O)c1ccc(-c2cc3c(N4CCN(C(=O)OC5COC5)CC4)ccnc3[nH]2)cc1 [Compound 436] | ≤ 10 nM | ≤ 100 nM
27 | CC(=O)N1CCc2sc(-c3[nH]c4nccc(N5CCN(C(=O)OC6COC6)CC5)c4c3C#N)nc2C1 [Compound 470] | ≤ 10 nM | ≤ 100 nM
28 | Cc1nc(-c2[nH]c3nccc(N4CCN(C(=O)O[C@H]5C[C@H](F)C5)CC4)c3c2C#N)cn1C [Compound 357] | ≤ 10 nM | ≤ 100 nM
29 | CC(C)OC(=O)N1CCN(c2ccnc3[nH]c(-c4cnn(C)c4)cc23)CC1 [Compound 41] | ≤ 10 nM | 100 to 500 nM
30 | CCOC(=O)N1CCN(c2ccnc3[nH]c(-c4ccc(C)cn4)cc23)CC1 [Compound 24] | ≤ 10 nM | 100 to 500 nM
31 | CCOC(=O)N1CCN(c2ccnc3[nH]c(-c4cnn(C5COC5)c4)cc23)CC1 [Compound 145] | ≤ 10 nM | ≤ 100 nM
32 | CCOC(=O)N1CCN(c2ccnc3[nH]c(-c4ccc(C#N)cc4)cc23)CC1 [Compound 53] | ≤ 10 nM | ≤ 100 nM
33 | Cn1cc(-c2[nH]c3nccc(N4CCN(C(=O)OC5CCC5)CC4)c3c2Cl)cn1 [Compound 255] | ≤ 10 nM | ≤ 100 nM
34 | Cn1cnc(-c2cc3c(N4CCN(C(=O)OC5CC5)CC4)ccnc3[nH]2)c1 [Compound 29] | ≤ 10 nM | ≤ 100 nM
35 | O=C(OC1COC1)N1CCN(c2ccnc3[nH]c(-c4ccccn4)cc23)CC1 [Compound 66] | ≤ 10 nM | 100 to 500 nM
36 | Cc1nc(-c2[nH]c3nccc(N4CCN(C(=O)OC5COC5)CC4)c3c2C#N)cs1 [Compound 303] | ≤ 10 nM | ≤ 100 nM
37 | O=C(OC1COC1)N1CCN(c2ccnc3[nH]c(-c4nc5c(s4)COCC5)cc23)CC1 [Compound 371] | ≤ 10 nM | ≤ 100 nM
38 | O=C(OC1COC1)N1CCN(c2ccnc3[nH]c(-c4cn(C5COC5)cn4)cc23)CC1 [Compound 301] | ≤ 10 nM | 100 to 500 nM
